Experiment [1] has as its system SREBP-1. The note with it: rat primary cultured liver cells, FIG. 5A.
Experiment [2] relates to SREBP-1. The note with it: H4IIE cells, FIG. 5A.
The test system of experiment [3] is SREBP-1. The note with it: HepG2 cells, FIG. 5A.
The procedure of experiment [4]: (§1) Male C57BL/6 mice (average weight of 25 to 30 g) as test animals were purchased from Charles River Orient (Seoul, Korea). For at least one week before being tested, the mice were acclimatized to the surrounding environment in the animal test research center of the College of Pharmacy, Seoul National University, that is, humidity of 55±5%, temperature of 22±2° C., and controlled ventilation. The mice were repeatedly and alternately exposed to light and then placed in the dark for a time interval of 12 hours (from 7 A.M. to 7 P.M). […] The weight and state of the mice were measured once a week. Two groups of mice were respectively raised with a high lipid diet (Dyets Inc., Bethlehem) and a normal diet for 10 weeks. For the last four weeks in each case, oltipraz (10 or 30 mg/kg, 3 times/week) was administered to the mice (FIG. 1). Each group consisted of a total of 10 mice.

A further experiment concerns FAS. The following applies: high lipid diet 10 weeks; oltipraz 10-30 mg/kg, 3 times/week, last four weeks; p<0.01; FIG. 9. The procedure:
as §1
(§2) Total RNA (2 μg) and d(T)16 primer which were extracted from the liver of mice, and an AMV reverse transcriptase were used to obtain cDNA. The relative amounts of genes were quantified by realtime RT-PCR using a CyBr green dye. The realtime RT-PCR was Light-cycler^2.0 produced by Roche (Mannheim, Germany).

For experiment [5], the system named is SREBP-1. The following applies: high lipid diet 10 weeks; oltipraz 10-30 mg/kg, 3 times/week, last four weeks; p<0.01; FIG. 4. Here is the method:
as §1, §2

The test system of the next experiment is ACC. The following applies: high lipid diet 10 weeks; oltipraz 10-30 mg/kg, 3 times/week, last four weeks; p<0.01; FIG. 9. Here is the method:
as §1, §2

In a further experiment the test system is LXRα. The following applies: high lipid diet 10 weeks; oltipraz 10-30 mg/kg, 3 times/week, last four weeks; p<0.01; FIG. 2. Here is the method:
as §1, §2

Experiment [6] deals with SREBP-1. The following applies: HepG2 cells treated with T0901317; nuclear fraction; FIG. 5B.
For the next experiment, the target named is LXRα/RXRα complex (Homo sapiens, UniProt Q13133). The note with it: LXRα and RXRα overexpressed; nuclear fraction; FIG. 3B.
Chain of LXRα/RXRα complex (Q13133 whole entry, one chain of several): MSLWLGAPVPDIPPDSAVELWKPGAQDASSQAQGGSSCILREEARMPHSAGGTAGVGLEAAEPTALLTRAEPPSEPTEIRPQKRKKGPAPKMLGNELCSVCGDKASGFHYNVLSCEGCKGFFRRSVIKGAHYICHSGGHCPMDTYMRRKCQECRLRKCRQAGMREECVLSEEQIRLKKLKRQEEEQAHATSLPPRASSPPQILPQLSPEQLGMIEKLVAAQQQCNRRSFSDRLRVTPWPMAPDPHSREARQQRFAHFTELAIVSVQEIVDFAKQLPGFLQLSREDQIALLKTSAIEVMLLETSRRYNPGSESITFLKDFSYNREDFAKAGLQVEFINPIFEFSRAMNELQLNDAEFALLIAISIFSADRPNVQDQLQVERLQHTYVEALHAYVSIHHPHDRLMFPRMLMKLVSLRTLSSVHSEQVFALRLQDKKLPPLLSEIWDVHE
[7] abbreviates: within 12 hours after treatment.
The mark [8] stands for this setting: whole cell extract, co-treated with T0901317.

Where two headings read alike, the source gives them in different places.

The source of these data is US9370504B2, “Pharmaceutical composition containing 1,2-dithiolthione derivative for preventing or treating disease caused by overexpression of LXR-α” (SNU R&DB FOUNDATION, priority 2008, dated 2016).

Procedure for LXRα/RXRα complex: Whether a binding capability of LXRE is changed by oltipraz treatment was identified by gel-shift assay. LXRE double-stranded oligonucleotide of a SREBP-1c gene was labeled with a radio active isotope at 5′-terminal by using [γ-^32P]ATP and T4 polynucleotide kinase, and then the labeled probe (1 ml, >10^6 cpm) was reacted with nuclear fraction proteins in a binding buffer solution. The reaction solution was subjected to electrophoresis in 4% polyacrylamide gel and then assayed by autoradiography. […] DNA binding specificity was identified by cold probe titration and supershift assay. For the cold probe titration, 20 times greater (molar base) un-labeled oligonucleotides were reacted in advance.

Consider `O=S(=O)(c1ccccc1)N(CC(F)(F)F)c1ccc(C(O)(C(F)(F)F)C(F)(F)F)cc1` [compound 10901317], for which the “expression of SREBP-1 protein after LXRα activator alone” value with SREBP-1 [1] (setting [7]), in the experiment on SREBP-1 [2] (setting [7]) and with SREBP-1 [3] (setting [7]) was “remarkably increased” in each case.
In the case of `Cc1c(-c2cnccn2)ssc1=S` [oltipraz, 4-methyl-5-(2-pyrazinyl)-1,2-dithiol-3-thione], the “red part dyed with Oil-Red-O in liver tissue” value in experiment [4] (HFD+Oltipraz versus HFD+vehicle, FIG. 11) is reported as “remarkably reduced”. In addition, in experiment [4] (high lipid diet 10 weeks, oltipraz administered, p<0.01, FIG. 10), the “amount of triglyceride in liver tissues” value is “significantly reduced”. Also, the “T0901317-increased expression of SREBP-1 protein” value is recorded as “concentration-dependently reduced” in the experiment with SREBP-1 [1] (setting [8]); “concentration-dependently reduced” in the experiment with SREBP-1 [2] (whole cell extract, co-treated with T0901317, FIGS. 6-8); “concentration-dependently reduced” in the experiment on SREBP-1 [3] (setting [8]). The “increase in FAS expression (mRNA, relative to normal diet group)” value in the experiment on FAS is recorded as “inhibited”. Besides, the “increase in SREBP-1 expression (mRNA, relative to normal diet group)” value in the experiment with SREBP-1 [5] was “inhibited”. Besides, the “increase in ACC expression (mRNA, relative to normal diet group)” value in the experiment on ACC was “inhibited”. Moreover, the “increase in LXRα expression (mRNA, relative to normal diet group)” value in the experiment with LXRα was “inhibited”. Also, the “increased nuclear localization of SREBP-1” value in the experiment with SREBP-1 [6] is reported as “concentration-dependently reduced”. In addition, at LXRα/RXRα complex, the “binding capability of LXRα with respect to DNA (LXRE)” value was “substantially decreased”.
